Assay results from patent EP0226475A1, “Diphenoxyethyl amine derivatives, process for their preparation and pharmaceutical compositions containing them” (Albert ROLLAND S.A. Société dite, priority 1985, dated 1987).

Tests used:
Type in all cases: in vivo
[1] = target: 5-HT (Sérotonine) uptake (Rattus norvegicus, UniProt P31652); assay: Uptake "ex vivo" of 5-HT; conditions: dose not given, N.S. = not significant
Source text: (§1) Activité sur les tests d'inhibition ou de recapture des principaux médiateurs adrénergiques.
(§2) Les résultats obtenus en comparaison avec ceux des antidépresseurs classiques sont rassemblés dans le tableau II: […]

[2] = target: DA (Dopamine) uptake (Rattus norvegicus, UniProt P23977); assay: Uptake "ex vivo" of DA; conditions: dose not given
Source text: as §1, §2

[3] = target: NAd (Nor adrénaline) uptake (Rattus norvegicus, UniProt Q63380); assay: Uptake "ex vivo" of NAd; conditions: dose not given
Source text: as §1

CN(C)CC(Oc1ccccc1)Oc1ccccc1 [MEDIFOXAMINE]
inactif: UPTAKE "EX VIVO" % d'inhibition 5-HT [1] | UPTAKE "EX VIVO" % d'inhibition DA [2] | UPTAKE "EX VIVO" % d'inhibition NAd [3]
